Consider four compounds from patent US9777017B2, “Tricyclic fused thiophene derivatives as JAK inhibitors” (Incyte Corporation, priority 2012, dated 2017).

Common to all, as to format: biochemical
In assay [1] the test system is human JAK1. In words: In vitro JAK kinase assay (HTRF, phosphorylation of a biotinylated peptide), JAK1. The conditions noted are these: ratio of IC50s, 1 mM ATP. An outline of the steps: (§1)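 Baculovirus-expressed catalytic domains (JAK1 a.a. 837-1142, JAK2 a.a. 828-1132) phosphorylate 500 nM biotinylated peptide at 1 mM ATP, Tris pH 7.8, 1 h at room temperature. EDTA stop and HTRF detection with Eu-Py20/SA-APC; IC50 values derived.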
A general note: TR-FRET usually uses a lanthanide donor and a delayed reading to cut background.

In assay [2] the target is human JAK1 (Homo sapiens, UniProt P23458). The assay is described as above. The note with it: 1 mM ATP. In a few lines:
as §1

The target of assay [3] is human JAK2 (Homo sapiens (Human), UniProt O60674). The assay is described as follows: In vitro JAK kinase assay (HTRF, phosphorylation of a biotinylated peptide), JAK2. The note with it: 1 mM ATP. Details: key to JAK2 IC50 (nM): +indicates an IC50 of ≦100 nM; ++indicates an IC50 of ≦1000 nM; +++indicates an IC50 of ≦2000 nM; ++++indicates an IC50 of >2000 nM; +++++indicates that the IC50 was greater than the highest concentration tested. An outline of the steps: as §1
human JAK2, sequence (O60674 828-1132): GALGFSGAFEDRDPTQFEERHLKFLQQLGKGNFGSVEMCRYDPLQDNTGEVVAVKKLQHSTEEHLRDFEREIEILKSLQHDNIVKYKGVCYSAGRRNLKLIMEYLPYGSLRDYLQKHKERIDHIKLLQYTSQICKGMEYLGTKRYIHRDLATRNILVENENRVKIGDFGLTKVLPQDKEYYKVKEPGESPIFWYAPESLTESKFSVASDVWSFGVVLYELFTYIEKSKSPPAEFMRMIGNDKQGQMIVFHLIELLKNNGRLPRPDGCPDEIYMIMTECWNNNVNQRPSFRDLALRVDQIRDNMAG

As to `CCCOC(=O)NC[C@H]1CC[C@H](n2c([C@@H](C)O)nc3cnc4ccsc4c32)CC1` [Example 83, Propyl [(trans-4-{2-[(1R)-1-hydroxyethyl]-1H-imidazo[4,5-d]thieno[3,2-b]pyridin-1-yl}cyclohexyl)methyl]carbamate], the JAK2/JAK1 in assay [1] was above 10. The values for the IC50 in assay [2] and in assay [3] were at most 100 nM and at most 1000 nM, respectively.
Regarding `C[C@@H](O)c1nc2cnc3ccsc3c2n1C1CCN(CCC#N)CC1` [Example 16, 3-(4-{2-[(1R)-1-Hydroxyethyl]-1H-imidazo[4,5-d]thieno[3,2-b]pyridin-1-yl}piperidin-1-yl)propanenitrile], in assay [1], the JAK2/JAK1 is listed as above 10. The concentration for half-maximal inhibition (IC50) (as a rule, the point on the concentration scale where inhibition reaches its midpoint) in assay [2] is at most 1000 nM; in assay [3], above 2000 nM.
As for `C[C@@H](O)c1nc2cnc3ccsc3c2n1[C@H]1CCCN(C(=O)CCCC#N)C1` [Example 59, 5-((3S)-3-{2-[(1R)-1-Hydroxyethyl]-1H-imidazo[4,5-d]thieno[3,2-b]pyridin-1-yl}piperidin-1-yl)-5-oxopentanenitrile], in assay [1], the JAK2/JAK1 is above 10. The IC50 in assay [2] is at most 1000 nM. Besides, in assay [3], the “JAK2 IC50 (nM)” value is given as “+++++”.
In the case of `C[C@@H](O)c1nc2cnc3ccsc3c2n1[C@H]1CC[C@H](CC#N)[C@H](N)C1` [Example 67, ((1R,2R,4S)-2-Amino-4-{2-[(1R)-1-hydroxyethyl]-1H-imidazo[4,5-d]thieno[3,2-b]pyridin-1-yl}cyclohexyl)acetonitrile], the JAK2/JAK1 in assay [1] was above 10. For the same compound, the results for the half-maximal inhibitory concentration (IC50) in assay [2] and in assay [3] were at most 1000 nM and above 2000 nM, respectively.
